{"source": "patent US8852876B2", "about": "“Label free biosensors and cells” (Corning Incorporated, priority 2008, dated 2014)", "key": {"[1]": {"tested_on": "EGF-induced response of quiescent A431 cells", "experiment": "Effect of compound pretreatment on EGF-induced DMR response", "assay_type": "cell-based, human", "how_it_was_run": "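A431 cells were made quiescent by ≥16 h culture in no or ~0.1% FBS medium. After two HBSS/20 mM HEPES pH 7.4 buffer additions ≥15 min apart, compound was added and then stimulus. Real-time dynamic mass redistribution was tracked by resonant waveguide biosensor with angular interrogation.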"}, "quiescent A431 cells": {"tested_on": "quiescent A431 cells", "experiment": "GPCR agonist-induced DMR and EGFR transactivation", "assay_type": "cell-based, human", "conditions": "for GPCR agonist-induced DMR response curve: bradykinin 100 nM, carbachol 10 μM, clonidine 1 μM", "procedure": "Both A431 and CHO-K1 cells were grown in Dulbecco's modified Eagle's medium (DMEM) supplemented with 10% fetal calf serum, 100 μg/ml penicillin, and 100 μg/ml streptomycin. For cell culture, certain numbers of cells (2×10^5 to 1×10^6), either A431 or CHO-K1, were suspended in […] medium were placed in each well of a 96 well Corning Epic Biosensor microplate, and were cultured at 37° C. in air/5% CO2 for certain time until the cell density reached ˜90% and above (unless specified). The resulted cells were termed as “profilerating” cells. The “quiescent” cells were obtained by culturing the profilerating cells of desired confluencies with a medium containing no or little (˜0.1% fetal bovine serum (FBS)) for at least 16 hours.\nDuring the assays, the cells in 100 μl medium were subject to two 25 μl HBSS buffer containing 20 mM HEPES, pH 7.4, each separated by at least 15 minutes before 50 μl stimulus-containing solution was applied. During all these steps, a parallel angular interrogation system was used to monitor the real time kinetics of cellular responses. For compound effect studies, a modified protocol was used which starts with 50 μl medium, and subject to sequential treatment: 25 μl HBSS buffer twice (each separated by at least 15 minutes), 50 μl compound solution and finally 50 μl stimulus-containing solution."}, "[2]": {"tested_on": "endogenous GPCRs in A431 cells", "experiment": "DMR optical biosensor profiling of GPCR agonists", "assay_type": "cell-based, human", "conditions": "quiescent A431; first class = Gq-type, second = Gs-type, third = Gi-type, fourth = no significant DMR"}, "CHO cells [3]": {"tested_on": "CHO cells", "experiment": "GPCR agonist-induced mass redistribution (optical LID)", "assay_type": "cell-based, Chinese hamster", "from_the_text": "These translocations can be located on a surface of an optical LID biosensor as disclosed herein. The particular data shown in FIGS. 52-60 was obtained using an optical waveguide grating sensor system and LID microplates (Nb2O5 plates), manufactured by Corning Incorporated. […] It is known that CHO cells 1008 endogenously express beta adrenergic receptors, alpha2-adrenergic receptors, P2Y receptors, as well as beta-arrestin and GRKs. It is also known that muscarinic receptors are endogenously expressed at very low level in the CHO cells 1008. In this experiment, approximately ˜5×10^4 CHO cells 1008 were placed within each well of a microplate that contained an array of optical LID biosensors 1004. The CHO cells 1008 were then cultured in 150 μl serum medium for 24 hours to ensure that the CHO cells 1008 became adherent to the substrate surface 1010. […] Since muscarinic receptors are endogenously expressed at very low level in CHO cells, oxotremorine M, agonist for muscarinic receptors, served as a control. Each of these agonists was directly applied to a different one of the wells which contained the serum medium. The optical responses were then collected by the optical LID system."}, "[4]": {"molecular_target": "T1, rat muscarinic receptor subtype 1 (Rattus norvegicus, UniProt P08482)", "T1 construct": "expressed in transfected cells; host or cells: CHO (M1 CHO)", "T1 sequence (P08482 1-460)": "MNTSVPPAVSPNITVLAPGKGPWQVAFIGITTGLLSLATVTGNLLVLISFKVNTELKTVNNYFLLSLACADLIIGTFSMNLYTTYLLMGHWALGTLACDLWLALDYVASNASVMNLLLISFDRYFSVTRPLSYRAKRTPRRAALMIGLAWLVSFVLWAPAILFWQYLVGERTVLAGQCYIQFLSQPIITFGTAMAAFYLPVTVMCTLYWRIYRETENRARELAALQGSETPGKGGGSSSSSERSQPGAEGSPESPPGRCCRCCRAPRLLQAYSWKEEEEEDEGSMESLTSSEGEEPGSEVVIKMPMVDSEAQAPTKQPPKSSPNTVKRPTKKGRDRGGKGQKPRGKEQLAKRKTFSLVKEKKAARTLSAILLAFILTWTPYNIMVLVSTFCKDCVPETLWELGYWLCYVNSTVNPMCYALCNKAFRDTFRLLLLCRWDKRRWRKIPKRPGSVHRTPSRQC", "experiment": "GPCR agonist-induced mass redistribution in M1 CHO cells (optical LID)", "assay_type": "cell-based"}, "CHO cells [5]": {"tested_on": "CHO cells", "experiment": "Saponin-permeabilized cell assay for cytoskeleton modulators (LID biosensor)", "assay_type": "cell-based, Chinese hamster", "conditions": "saponin 67 ug/ml", "from_the_text": "The method involves the use of pore-forming reagents (e.g, saponin) to generate permeabilized cells which permit soluble proteins to diffuse away. It is known that treatment of the cells with many pore-forming reagents leads to permeabilized cells. Since intracellular macromolecules are highly organized within the cytoplasm of mammalian cells through direct binding to cytoskeletal elements, the permeabilized cells still retain most of the biological functions of living cells by sequestration of intracellular machinery through the cytoskeleton super-assembled structure, although the saponin-treated cells undergo the loss of some portions of biomacromolecules. However, upon disruption of microfilaments there is a dramatic reduction of protein synthesis accompanied by release of these translation components from the cells. Also, many other sequestered biomacromolecules are released from these permeabilized cells after disrupting the cytoskeleton structure. These further released materials from the permeabilized cells result in the loss in mass; thus resulting in the changes in effective refractive index of the cell layer on the surface of a LID biosensor which can be detected by LID biosensors. Thus, the changes obtained using optical biosensors can be used as an indicator of modulators that interfere with the cytoskeleton structure. In one embodiment, the present methods can be used to screen modulators that interfere with the cytoskeleton structure using the method 2500 shown in FIG. 25. In accordance with method 2500 one can monitor the mass redistribution due to pore formation of cell surface membranes induced by pore-forming reagents such as saponin in living cells 1008 by: (a) providing an optical LID biosensors 1004 (step 2502); (b) placing cells 1008 in a cell medium onto the said sensor 1004 (step 2504); (c) Optionally applying a buffer solution (step 2506); (d) applying a solution containing a compound into the cell mediums located on the top surfaces 1010 of covered optical LID biosensors 1004 (step 2508); applying a solution containing a pore-forming reagent (step 2510); and (e) interrogating the covered optical LID biosensors 1010 to monitor the time dependent optical responses which indicate mass redistributions within the permeabilized cells 1008 (step 2512). A Pore-forming reagent is a chemical or biological compound or composition that can result in the formation of pores in cell surface membranes when the cells are exposed to the reagent.\nThe pore-forming regents include detergents such as saponin and filipin, or toxin such as digitonin or streptolysin O. It is well known that treatment of the cells with these reagents can result in the pore formation in cell surface membrane; the resulted permeabilized cells can release a certain amount of intracellular material, mainly soluble proteins. However, there are a great number of bio-materials that still stay with these permeabilized cells due to the sequestration by directly binding or association with the cytoskeleton structure. As a matter of fact, these permeabilized cells retain many of the biological functions of living cells such as protein synthesis.\nFIG. 50 presents the dose-dependent responses of CHO cells adherent on the surface of a LID sensor in response to saponin as a function of time. After the addition of saponin at different concentrations, a different response is evident. At low concentration, there is almost no response. […]"}}}
{"molecule": "COc1cc2ncnc(Nc3cccc(Cl)c3)c2cc1OC", "note": "[AG1478, tyrphostin AG1478]", "values": [{"measurement": "IC50", "setting": "[1]; read-out: IC50 for suppression of EGF-induced response (amplitude of N-DMR signal)", "result": "~194", "unit": "nM"}, {"measurement": "Effect of pretreatment on bradykinin-induced response", "setting": "quiescent A431 cells; AG1478 10 μM", "result": "can only partially attenuate the response"}, {"measurement": "Effect of pretreatment on carbachol- and clonidine-induced response", "setting": "quiescent A431 cells; AG1478 10 μM", "result": "totally abolished the N-DMR phase, and significantly reduced the kinetics of the P-DMR phase"}]}
{"molecule": "C[N+](C)(C)CCOC(N)=O", "note": "[Carbachol, carbachol]", "values": [{"measurement": "GPCR agonist-induced DMR response curve", "setting": "quiescent A431 cells", "result": "responses with almost identical features as those induced by low concentrations (2-8 nM) of EGF"}]}
{"molecule": "Clc1cccc(Cl)c1N=C1NCCN1", "note": "[clonidine]", "values": [{"measurement": "GPCR agonist-induced DMR response curve", "setting": "quiescent A431 cells", "result": "responses with almost identical features as those induced by low concentrations (2-8 nM) of EGF"}, {"measurement": "Class of optical signature (DMR) induced by agonist", "setting": "[2]", "result": "did not exhibited any significant DMR signals"}]}
{"molecule": "C[N+](C)(C)CC#CCN1CCCC1=O", "note": "[oxotremorine M]", "values": [{"measurement": "Agonist-induced optical response", "setting": "CHO cells [3]; ATP 100 μM, clonidine 10 μM, epinephrine 100 μM, oxotremorine M 10 μM", "result": "caused almost no cell response"}, {"measurement": "Ligand-induced response in M1-CHO cells", "setting": "[4]; 10 μM, compared with CHO cells", "result": "significantly larger responses in M1-CHO cells"}]}
{"molecule": "dynamin inhibitory peptide [DIP]", "values": [{"measurement": "Effect of pre-treatment on EGF-induced P-DMR and N-DMR signals", "setting": "[1]; starved A431 cells, 8 nM EGF, 30-minute pretreatment, GH 0.5 ng/ml, PD98059 0.1 mM, PP1 1 μM, wortmannin 0.1 μM, DIP 50 μM", "result": "totally blocks the N-DMR signal, but slightly increases the P-DMR signal with much slower kinetics"}, {"measurement": "Increase of total P-DMR signal in presence vs absence of compound", "setting": "[1]; starved A431 cells, EGF, DIP 50 μM", "result": 50, "unit": "%"}, {"measurement": "Effect of compound pre-treatment on saponin-induced response (loss of biomaterials)", "setting": "CHO cells [5]", "result": "show no effect on a saponin-induced response"}, {"measurement": "Effect of pre-incubation on NECA-induced response", "setting": "CHO cells [3]; DIP 50 μM, 45 minutes, NECA 10 μM, CHO", "result": "little effect on NECA-induced response"}, {"measurement": "Effect of pre-incubation on clonidine-induced response", "setting": "CHO cells [3]; DIP 50 μM, 45 minutes, clonidine 10 μM, CHO", "result": "almost totally eliminates the clonidine-induced mass distribution response"}, {"measurement": "Effect of pre-incubation on oxotremorine M-induced response", "setting": "CHO cells [3]; DIP 50 μM, 45 minutes, oxotremorine M 10 μM, CHO", "result": "almost totally eliminates the oxotremorine M-induced mass distribution responses in both cell lines"}, {"measurement": "Effect of pre-incubation on NECA-induced response", "setting": "[4]; DIP 50 μM, 45 minutes, NECA 10 μM, M1 CHO", "result": "little effect on NECA-induced response"}, {"measurement": "Effect of pre-incubation on clonidine-induced response", "setting": "[4]; DIP 50 μM, 45 minutes, clonidine 10 μM, M1 CHO", "result": "almost totally eliminates the clonidine-induced mass distribution response"}, {"measurement": "Effect of pre-incubation on oxotremorine M-induced response", "setting": "[4]; DIP 50 μM, 45 minutes, oxotremorine M 10 μM, M1 CHO", "result": "almost totally eliminates the oxotremorine M-induced mass distribution responses in both cell lines"}]}
